In US20230000063A1, “SYSTEM FOR DETECTING EXTRACELLULAR PURINERGIC RECEPTOR LIGAND, AND NON-HUMAN ANIMAL HAVING THE SYSTEM INTRODUCED THEREINTO” (Chugai Seiyaku Kabushiki Kaisha, priority 2019, published 2023):

Columns and labels:
human P2Y11 [1] = biological target: T1, human P2Y11 (Homo sapiens, UniProt Q96G91); test: Detection of in vitro ATP concentration in fibroblasts derived from the double knock-in mouse; format: cell-based; conditions: fibroblast from double knock-in mouse; 0 to 1000 μM ATP + VivoGlo Luciferin; IVIS, exposure 180 sec
T1 construct: expressed in transfected cells; host or cells: cells of the P2Y11-split Luc (C-terminal)/Arrestin-split Luc (N-terminal) double knock-in mouse (Rosa26 locus): in vivo, and a skin fibroblast line derived from it
T1 sequence (Q96G91 1-374): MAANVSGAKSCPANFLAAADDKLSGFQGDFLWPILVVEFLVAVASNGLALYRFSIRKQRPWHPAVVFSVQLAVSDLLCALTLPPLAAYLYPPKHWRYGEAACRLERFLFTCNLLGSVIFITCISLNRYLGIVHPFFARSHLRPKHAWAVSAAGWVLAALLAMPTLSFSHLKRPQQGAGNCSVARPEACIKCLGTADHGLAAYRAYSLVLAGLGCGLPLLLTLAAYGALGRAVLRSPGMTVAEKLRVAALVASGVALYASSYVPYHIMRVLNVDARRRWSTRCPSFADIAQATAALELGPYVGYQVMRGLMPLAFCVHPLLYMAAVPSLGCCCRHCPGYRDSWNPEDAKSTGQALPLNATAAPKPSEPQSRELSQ
Description: A skin tissue was collected from a P2Y11-split Luc (C-terminal)/Arrestin-split Luc (N-terminal) double knock-in mouse, and was sliced with a scalpel in a culture fluid, and the resultant was covered with a cover glass with a dermis side in contact with a bottom of a culture dish, and was cultured in a D-MEM medium supplemented with 10% FBS and 1×NEAA. Fibroblasts confirmed to have migration/growth of cells were collected by a trypsin treatment, and the resultant was repeatedly passaged to establish a fibroblast cell line.
The fibroblast derived from the P2Y-11 split Luc (C-terminal)/Arrestin-split Luc (N-terminal) double knock-in mouse was seeded in a 24-well culture plate. On the next day, ATP at a final concentration of 0 to 1000 μM and VivoGlo Luciferin (Promega #P1043) were added thereto, and a luminescent signal was detected with IVIS Spectrum CT (Perkin Elmer). The measurement was performed under conditions of exposure time of 180 sec, with medium binning, and F/Stop of 1, and thus the luminescent signal was analyzed in terms of a physical quantity (photons/sec).

human P2Y11 [2] = biological target: T1, human P2Y11; test: In vivo imaging of ATP at known concentration in the double knock-in mouse; conditions: 50 μL of 0, 1, 2, 4 or 8 mM ATP + 15 mg/mL VivoGlo Luciferin subcutaneously, IVIS 10 to 20 minutes after, exposure 60 sec
Description: To a P2Y11-split Luc (C-terminal)/Arrestin-split Luc (N-terminal) double knock-in mouse, 50 μL of a mixture of ATP at a final concentration of 0 mM, 1 mM, 2 mM, 4 mM, or 8 mM and 15 mg/mL VivoGlo Luciferin (Promega #P1043) was subcutaneously administered. A luminescent signal intensity was measured with IVIS Spectrum CT (Perkin Elmer) 10 to 20 minutes after the ATP administration. The measurement was performed under conditions of exposure time of 60 sec, with medium binning, and F/stop of 1, and thus the luminescent signal was analyzed in terms of a physical quantity (photons/sec). […] Thus it was confirmed that the mouse functions as a concentration dependent reporter mouse (FIG. 6 and FIG. 7).

human P2Y11 [3] = test: Detection of in vivo ATP signal in P2Y11-split Luc (C-terminal)/Arrestin-split Luc (N-terminal) double knock-in mouse; conditions: 50 μL of 1 mM ATP + 15 mg/mL VivoGlo Luciferin subcutaneously, IVIS 10 to 20 minutes after, not detected in single-allele or wild type mice
Description: To a P2Y11-split Luc (C-terminal)/Arrestin-split Luc (N-terminal) double knock-in mouse, 50 μL of a mixture of ATP at a final concentration of 1 mM and 15 mg/mL VivoGlo Luciferin (Promega #P1043) was subcutaneously administered. A luminescent signal intensity was measured with IVIS Spectrum CT (Perkin Elmer) 10 to 20 minutes after the ATP administration. The measurement was performed under conditions of exposure time of 180 sec, with medium binning, and F/stop of 1, and thus the luminescent signal was analyzed in terms of a physical quantity (photons/sec).

In the case of `Nc1ncnc2c1ncn2[C@@H]1O[C@H](COP(=O)(O)OP(=O)(O)OP(=O)(O)O)[C@@H](O)[C@H]1O` [ATP], the luminescent signal intensity (human P2Y11 [1]) is reported as “a concentration-dependent signal intensity was detected”, the luminescent signal intensity (human P2Y11 [2]) is reported as “an ATP concentration-dependent signal intensity was detected” and the “luminescent signal due to the ATP administration” value (human P2Y11 [3]) is reported as “a luminescent signal due to the ATP administration was detected”.
